Test results reported in ChEMBL document CHEMBL5579805, “Synthesis, antibacterial activity, and 3D-QASR studies of matrine-indole derivatives as potential antibiotics” (2024).
≈ marks a conversion by molar mass, not a printed value.

Legend:
Type in all cases: functional
Staphylococcus aureus = assay: Antibacterial activity against Staphylococcus aureus by two-fold dilution method; conditions: for MIC: Staphylococcus aureus
Cutibacterium acnes = assay: Antibacterial activity against Propionibacterium acnes by two-fold dilution method
Pseudomonas aeruginosa = assay: Antibacterial activity against Pseudomonas aeruginosa by two-fold dilution method
Escherichia coli = assay: Antibacterial activity against Escherichia coli by two-fold dilution method
Candida albicans = assay: […] activity against Candida albicans by two-fold dilution method; conditions: for MIC: Candida albicans

Row | Structure (SMILES) | MIC (Staphylococcus aureus) [µg/mL] | -logMIC (Staphylococcus aureus) | MIC (Cutibacterium acnes) [µg/mL] | MIC (Pseudomonas aeruginosa) [µg/mL] | MIC (Escherichia coli) [µg/mL] | -logMIC (Candida albicans) | MIC (Candida albicans) [µg/mL]
1 | CC1(C)S[C@@H]2[C@H](NC(=O)Cc3ccccc3)C(=O)N2[C@H]1C(=O)[O-].[Na+] [PENICILLIN G SODIUM] | 0.037 |  |  |  |  |  | 
2 | COC(=O)CCC[C@@H]1[C@H]2CCCN3CCC[C@@H](CN1C(=O)c1cc4ccc(Cl)cc4n1Cc1ccccc1)[C@@H]23 | 0.521 (≈ 0.951 µM) | 0.283 | 0.478 (≈ 0.872 µM) | 0.844 (≈ 1.54 µM) | 1.23 (≈ 2.25 µM) | -0.951 | 8.94 (≈ 16.3 µM)
3 | COC(=O)CCC[C@@H]1[C@H]2CCCN3CCC[C@@H](CN1C(=O)c1cc4ccc(Cl)cc4n1Cc1ccc(Cl)cc1)[C@@H]23 | 0.186 (≈ 0.319 µM) | 0.73 | 0.246 (≈ 0.422 µM) | 0.633 (≈ 1.09 µM) | 0.812 (≈ 1.39 µM) | -1.13 | 13.5 (≈ 23.1 µM)
4 | NC[C@H]1O[C@H](O[C@H]2[C@H](O)[C@@H](O[C@H]3O[C@H](CO)[C@@H](O)[C@H](N)[C@H]3O)[C@H](N)C[C@@H]2N)[C@H](O)[C@@H](O)[C@@H]1O.O=S(=O)(O)O [KANAMYCIN SULFATE] |  |  |  |  | 0.052 |  | 
5 | COC(=O)CCC[C@@H]1[C@H]2CCCN3CCC[C@@H](CN1C(=O)c1cc4ccc(Cl)cc4[nH]1)[C@@H]23 | 1.61 (≈ 3.52 µM) | 0.207 | 0.636 (≈ 1.39 µM) | 0.661 (≈ 1.44 µM) | 2.55 (≈ 5.57 µM) | -0.819 | 6.59 (≈ 14.4 µM)
6 | COC(=O)CCC[C@@H]1[C@H]2CCCN3CCC[C@@H](CN1C(=O)c1cc4ccc(Cl)cc4n1Cc1ccccc1C(C)(C)C)[C@@H]23 | 0.178 (≈ 0.295 µM) | 0.75 | 0.354 (≈ 0.586 µM) | 0.926 (≈ 1.53 µM) | 1.14 (≈ 1.88 µM) | -0.898 | 7.9 (≈ 13.1 µM)
7 | COC(=O)CCC[C@@H]1[C@H]2CCCN3CCC[C@@H](CN1C(=O)c1cc4ccc(Cl)cc4n1Cc1cccc([N+](=O)[O-])c1)[C@@H]23 | 0.031 (≈ 0.0523 µM) | 1.509 | 0.248 (≈ 0.418 µM) | 0.387 (≈ 0.652 µM) | 0.954 (≈ 1.61 µM) | -1.07 | 11.7 (≈ 19.7 µM)
8 | C[C@H]1c2cccc(O)c2C(=O)C2=C(O)[C@]3(O)C(=O)C(C(N)=O)=C(O)[C@@H](N(C)C)[C@@H]3[C@@H](O)[C@@H]21.Cl [DOXYCYCLINE HYDROCHLORIDE] |  |  | 0.023 |  |  |  | 
9 | COC(=O)CCC[C@@H]1[C@H]2CCCN3CCC[C@@H](CN1C(=O)c1cc4ccc(Cl)cc4n1Cc1cccc(OCc4ccccc4)c1)[C@@H]23 | 0.117 (≈ 0.179 µM) | 0.932 | 0.093 (≈ 0.142 µM) | 0.975 (≈ 1.49 µM) | 0.894 (≈ 1.37 µM) | -0.991 | 9.8 (≈ 15 µM)
10 | COC(=O)CCC[C@@H]1[C@H]2CCCN3CCC[C@@H](CN1C(=O)c1cc4ccc(Cl)cc4n1Cc1cc(C(C)(C)C)cc(C(C)(C)C)c1)[C@@H]23 | 0.093 (≈ 0.141 µM) | 1.032 | 0.29 (≈ 0.439 µM) | 0.466 (≈ 0.706 µM) | 1.49 (≈ 2.25 µM) | -0.955 | 9.02 (≈ 13.7 µM)
11 | COC(=O)CCC[C@@H]1[C@H]2CCCN3CCC[C@@H](CN1C(=O)c1cc4ccc(Cl)cc4n1Cc1cc(OC)ccc1Br)[C@@H]23 | 0.774 (≈ 1.18 µM) | 0.111 | 0.175 (≈ 0.266 µM) | 0.323 (≈ 0.492 µM) | 0.933 (≈ 1.42 µM) | -0.997 | 9.92 (≈ 15.1 µM)
12 | COC(=O)CCC[C@@H]1[C@H]2CCCN3CCC[C@@H](CN1C(=O)c1cc4ccc(Cl)cc4n1Cc1ccc(F)cc1Br)[C@@H]23 | 0.348 (≈ 0.54 µM) | 0.458 | 0.351 (≈ 0.544 µM) | 0.445 (≈ 0.69 µM) | 1.04 (≈ 1.62 µM) | -0.942 | 8.74 (≈ 13.6 µM)
13 | COC(=O)CCC[C@@H]1[C@H]2CCCN3CCC[C@@H](CN1C(=O)c1cc4ccc(Cl)cc4n1Cc1ccc(F)c(F)c1)[C@@H]23 | 0.427 (≈ 0.731 µM) | 0.37 | 0.12 (≈ 0.205 µM) | 0.5 (≈ 0.856 µM) | 0.483 (≈ 0.827 µM) | -0.98 | 9.55 (≈ 16.3 µM)
14 | COC(=O)CCC[C@@H]1[C@H]2CCCN3CCC[C@@H](CN1C(=O)c1cc4ccc(Cl)cc4n1Cc1ccc(C(C)(C)C)cc1)[C@@H]23 | 0.085 (≈ 0.141 µM) | 1.071 | 1.33 (≈ 2.19 µM) | 0.654 (≈ 1.08 µM) | 1.22 (≈ 2.02 µM) | -1.26 | 18.1 (≈ 29.9 µM)
15 | COC(=O)CCC[C@@H]1[C@H]2CCCN3CCC[C@@H](CN1C(=O)c1cc4ccc(Cl)cc4n1Cc1ccc4ccccc4c1)[C@@H]23 | 0.065 (≈ 0.109 µM) | 1.187 | 0.175 (≈ 0.293 µM) | 0.42 (≈ 0.702 µM) | 0.892 (≈ 1.49 µM) | -1.09 | 12.2 (≈ 20.4 µM)
16 | COC(=O)CCC[C@@H]1[C@H]2CCCN3CCC[C@@H](CN1C(=O)c1cc4ccc(Cl)cc4n1Cc1ccc(Br)cc1)[C@@H]23 | 1.15 (≈ 1.83 µM) | 0.06 | 0.121 (≈ 0.193 µM) | 0.467 (≈ 0.745 µM) | 0.762 (≈ 1.22 µM) | -1.14 | 13.7 (≈ 21.9 µM)
17 | COC(=O)CCC[C@@H]1[C@H]2CCCN3CCC[C@@H](CN1C(=O)c1cc4ccc(Cl)cc4n1Cc1ccc([N+](=O)[O-])cc1)[C@@H]23 | 0.18 (≈ 0.303 µM) | 0.745 | 0.053 (≈ 0.0894 µM) | 0.28 (≈ 0.472 µM) | 0.523 (≈ 0.882 µM) | -0.846 | 7.01 (≈ 11.8 µM)
18 | COC(=O)CCC[C@@H]1[C@H]2CCCN3CCC[C@@H](CN1C(=O)c1cc4ccc(Cl)cc4n1Cc1ccc(OC)cc1)[C@@H]23 | 0.354 (≈ 0.612 µM) | 0.451 | 0.404 (≈ 0.699 µM) | 0.627 (≈ 1.08 µM) | 0.775 (≈ 1.34 µM) | -0.905 | 8.04 (≈ 13.9 µM)
19 | COC(=O)CCC[C@@H]1[C@H]2CCCN3CCC[C@@H](CN1C(=O)c1cc4ccc(Cl)cc4n1Cc1cc(C#N)ccc1F)[C@@H]23 | 3.86 (≈ 6.54 µM) | 0.587 | 0.2 (≈ 0.338 µM) | 0.658 (≈ 1.11 µM) | 0.644 (≈ 1.09 µM) | -1.02 | 10.6 (≈ 17.9 µM)
20 | COC(=O)CCC[C@@H]1[C@H]2CCCN3CCC[C@@H](CN1C(=O)c1cc4ccc(Cl)cc4n1Cc1cccc(C(F)(F)F)c1)[C@@H]23 | 0.136 (≈ 0.221 µM) | 0.866 | 0.058 (≈ 0.0941 µM) | 0.234 (≈ 0.38 µM) | 0.559 (≈ 0.907 µM) | -0.655 | 4.52 (≈ 7.33 µM)
21 | COC(=O)CCC[C@@H]1[C@H]2CCCN3CCC[C@@H](CN1C(=O)c1cc4ccc(Cl)cc4n1Cc1cccc(C)c1)[C@@H]23 | 0.271 (≈ 0.482 µM) | 0.567 | 0.305 (≈ 0.543 µM) | 0.536 (≈ 0.953 µM) | 1.3 (≈ 2.31 µM) | -1.06 | 11.6 (≈ 20.6 µM)
22 | COC(=O)CCC[C@@H]1[C@H]2CCCN3CCC[C@@H](CN1C(=O)c1cc4ccccc4[nH]1)[C@@H]23 | 9.79 (≈ 23.1 µM) | -0.991 | 1.23 (≈ 2.91 µM) | 1.08 (≈ 2.56 µM) | 2.97 (≈ 7.01 µM) | -1.16 | 14.3 (≈ 33.7 µM)
23 | COC(=O)CCC[C@@H]1[C@H]2CCCN3CCC[C@@H](CN1C(=O)c1cc4ccc(Cl)cc4n1Cc1cccc4ccccc14)[C@@H]23 | 0.303 (≈ 0.507 µM) | 0.519 | 0.14 (≈ 0.234 µM) | 0.534 (≈ 0.893 µM) | 0.649 (≈ 1.08 µM) | -1.08 | 12.1 (≈ 20.2 µM)
24 | OC(Cn1cncn1)(Cn1cncn1)c1ccc(F)cc1F [FLUCONAZOLE] |  |  |  |  |  |  | 4.85 (≈ 15.8 µM)
25 | CC(C)(O/N=C(\C(=O)N[C@@H]1C(=O)N2C(C(=O)[O-])=C(C[n+]3ccccc3)CS[C@H]12)c1csc(N)n1)C(=O)O [CEFTAZIDIME] |  |  |  | 0.042 (≈ 0.0768 µM) |  |  | 
